Measurements published in patent US20080200393A1, “Method and Composition For Treating Angiogenesis and For Preventing Cancer Progression and Metastasis Comprising a Prostate Secretory Protein (Psp94) Family Member” (Ambrillia Biopharma Inc., priority 2004, published 2008).
Where “and” joins values, the source holds several entries; their conditions need not be identical. Identical values can stand only once. Where no end group is shown, it is not given here.

Key:
MMP-9 = assay: Western blot of MMP-9 in MatLyLu cell culture media; format: cell-based; details: MatLyLu cells, 100 ug/ml, 500 ug/ml and 1 mg/ml, 72 hrs
Protocol: A separate western blot experiment was performed in which MatLyLu cells were treated with 100 ug/ml, 500 ug/ml and 1 mg/ml of the PCK3145 derivative for 72 hrs. At the end of the experiment, the media were collected and concentrated 5 times using Amicon centrifugal filter devices (3500 molecular weight cut-off).
Twenty five microliters samples were separated on SDS-PAGE gel under reducing conditions using pre-cast gels of 4-12% Bis-Tris (Invitrogen). Following electrophoresis, the proteins were transferred on nitrocellulose membrane. Non-specific binding sites were blocked using 5% skimmed milk in 10 mM phosphate buffer saline (PBS) containing 0.05% Tween-20 for 1 hour at room temperature. The membrane was later incubated with a primary antibody (monoclonal, RDI-MMP-9abm-2A5) at a concentration of 1 ug/ml (in 10 mM PBS, containing 0.5% bovine serum albumin (BSA) and 0.05% Tween-20) for 3 hours at room temperature.
The membranes were washed three times in PBS (5 minutes each wash) to remove non-specific binding and they were incubated with the secondary antibody (Rabbit anti-mouse IgG horseradish peroxidase-conjugated (Dako no. 0260)) at a dilution of 1:5000 for one hour. Detection of specific MMP-9 protein was made by incubating the membrane in ECL™ reagent (electro-chemoluminescence, Roche) and exposing to the X-ray film.

ERK = assay: Intrinsic effect on ERK phosphorylation (Western blot); format: cell-based
Protocol: The induction of the MAPK pathway by the PCK3145 derivative is further confirmed by the rapid and transient induction of ERK phosphorylation between 5-10 minutes (FIG. 8B) and is shown to be dose-dependent (FIG. 8C). Finally, the effects of the PCK3145 derivative were also compared to those of a scrambled peptide.

glioma cells (U-87) = assay: SEAP gene-reporter assay (Mercury Profiling Kit); format: cell-based
Protocol: In order to investigate the potential intracellular pathways triggered by the PCK3145 derivative, a gene-reporter assay using the SEAP (Secreted Alkaline Phosphatase) Mercury Profiling Kit (CLONTECH) was performed in glioma cells (U-87). This assay enables the monitoring of transcription factors that are triggered by a particular experimental condition by assaying the alkaline phosphatase activity in the extracellular media.

[1] = tested on: total MMP-9 (human active and pro-MMP-9); assay: Total MMP-9 ELISA on plasma of patients, Phase IIa clinical trial; format: in vivo; details: for MMP-9 level in plasma, D27C3: day 27 of cycle 3
Description: The clinical trial is a multiple ascending dose, open-label, Phase IIa study evaluating the safety and tolerability of PCK3145 derivative; SEQ ID NO.:7 administered intravenously in patients with metastatic hormone resistant prostatic cancer (HRPC). The study is not randomized. Patients have been enrolled sequentially and chronologically.
The drug was therefore administered to patients characterized as having metastatic adenocarcinoma of the prostate, stage IV prostatic cancer and as having a metastatic hormone resistant prostatic cancer. Four patients per cohort and 4 ascending doses were evaluated. The ascending doses were 5, 20, 40 and 80 mg/m^2. The dose escalation decision has been based on dose-limiting toxicity (DLT).
The 33-day cycle of treatment consisted of a PCK3145 derivative; SEQ ID NO.:7 administration three times per week (day 1, 3 and 5) for 26 days, followed by a 7 day post-treatment observation period. The maximum tolerated dose (MTD) is the dose level below the one inducing grade 3 or 4 drug related toxicity (DLT) in two patients from a cohort of a minimum of 4 patients. Only DLT's observed during the first cycle have been used for the dose escalation decision.
The treatment period consisted of intravenous administration of the PCK3145 derivative (SEQ ID NO.:5 derivative) i.e., SEQ ID NO.:7, three times per week (day 1, 3 and 5) for 26 consecutive days during which patients were closely monitored and undergone regular examination. After a week of treatment break and in the absence of toxicity and disease progression, patients optionally received additional treatment cycles.
Biological samples were drawn during different time points of the study for the purpose of safety monitoring and have been assayed for MMP-9 levels. Plasma samples were placed on dry ice and stored frozen (approximately −70° C.) and subsequently analyzed for total MMP-9 levels.
MMP-9 assay methodology. An Elisa assay measuring total MMP-9, i.e., human active and pro-MMP-9, (Quantikine®), Cat. No.: DMP900, R&D Systems Inc.) was performed on plasma-heparin samples. Plasma samples have been collected from individuals at day 1 (before treatment) and at day 27 of each treatment cycle.
The Quantikine® MMP-9 immunoassay is a solid phase ELISA designed to measure total MMP-9 (92 kDa pro- and 82 kDa active forms) in serum, plasma, saliva, urine and cell culture supernatants. It is calibrated with CHO-cells expressed recombinant human pro-MMP-9 and the antibodies were raised against the recombinant factor. Both antibodies also recognize recombinant human active MMP-9.
The assay employs the quantitative sandwich enzyme immunoassay technique. A monoclonal antibody specific for MMP-9 has been pre-coated onto a microplate. Standards and samples are added into the wells, and MMP-9 is thus bound by the immobilized antibody. After washing away unbound substances, an enzyme-linked polyclonal antibody specific for MMP-9 is added to the wells. Following a wash to remove unbound antibody-enzyme reagent, a substrate solution is added to the wells and color develops in proportion to the amount of total MMP-9 (pro and/or active) bound in the initial step. The color development is stopped and the intensity of the color is measured.

Sequence: EWQTDNCETCTCYET (cysteine pairing not given here) [PCK3145 derivative, PCK3145 derivative with acetylaminomethyl groups on the three cysteines]
- MMP-9 levels (western blot) (MMP-9): dose-dependent reduction
- induction of ERK phosphorylation, dose dependence (ERK; dose-response): dose-dependent
- time of rapid and transient induction of ERK phosphorylation (ERK; time-course): 5 to 10 min
- MAPK/JNK pathway (SRE), SEAP reporter (glioma cells (U-87)): triggers significantly
- NFkB pathway, SEAP reporter (glioma cells (U-87)): triggers significantly
- secretion of the constitutively expressed SEAP (glioma cells (U-87)): inhibited
- change in MMP-9 levels compared to baseline ([1]; elevated MMP-9 category (patients A, B, C, D), after one cycle): significant decrease
- MMP-9 level in plasma, D27C2 ([1]; elevated baseline MMP-9 patients, day 27 of cycle 2): 55.6 µg/L and 37.7 µg/L
- MMP-9 level in plasma, D27C3 ([1]; elevated baseline MMP-9 patients): 54.5 µg/L
- MMP-9 level in plasma, D27C4 ([1]; elevated baseline MMP-9 patients, day 27 of cycle 4): 39.4 µg/L
- MMP-9 level in plasma, D27C3 ([1]; normal baseline MMP-9 patients): 101.8 µg/L
- change in MMP-9 levels compared to baseline ([1]; normal value MMP-9 category (patients E, F, G, H, I), after one cycle): no significant decrease
- decrease in MMP-9 levels compared to baseline ([1]; patient A, after cycle 1): up to 89%
- decrease in MMP-9 levels compared to baseline ([1]; patient B, after cycle 1): 41%
- reduction of baseline level of MMP-9 ([1]; patient B, treatment cycle 2): 64%
- reduction of baseline level of MMP-9 ([1]; patient B, treatment cycle 3): 65%
- reduction of baseline level of MMP-9 ([1]; patient B, treatment cycle 4): 75%
- decrease in MMP-9 levels compared to baseline ([1]; patient C, cycle 1): 90%
- reduction in MMP-9 levels ([1]; patient C, cycle 2): 76%
- decrease in MMP-9 levels compared to baseline ([1]; patient D, cycle 1): 34%
- change in MMP-9 levels compared to baseline ([1]; patient E, after 3 cycles): no MMP-9 decrease
- change in MMP-9 levels compared to baseline ([1]; patients E and G, after 2 cycles): no decrease
